Where two headings read alike, the source gives them in different places. Some results are limits rather than exact numbers.

In one test the target is T1, RORγt (Homo sapiens, UniProt P51449).
T1 construct: host or cells: IL-17A Prom/LUCPorter HEK 293 cell line (IMGENEX, IML-301)
T1 sequence (P51449 1-497 isoform P51449-2): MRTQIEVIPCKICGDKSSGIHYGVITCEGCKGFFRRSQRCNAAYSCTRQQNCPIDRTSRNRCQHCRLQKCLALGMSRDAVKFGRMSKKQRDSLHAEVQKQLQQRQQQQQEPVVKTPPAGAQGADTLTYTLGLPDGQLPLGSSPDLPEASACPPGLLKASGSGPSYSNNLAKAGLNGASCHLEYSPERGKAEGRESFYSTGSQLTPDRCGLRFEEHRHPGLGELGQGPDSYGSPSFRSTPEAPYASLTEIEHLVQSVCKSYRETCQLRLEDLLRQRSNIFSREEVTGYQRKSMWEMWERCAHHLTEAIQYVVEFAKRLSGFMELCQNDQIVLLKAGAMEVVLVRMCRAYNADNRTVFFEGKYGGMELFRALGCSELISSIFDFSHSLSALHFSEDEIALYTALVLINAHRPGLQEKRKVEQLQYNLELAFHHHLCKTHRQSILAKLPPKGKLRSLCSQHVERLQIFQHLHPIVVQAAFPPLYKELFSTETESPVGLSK
Nature of the test: RORγt-activated IL-17A Prom/LUCPorter HEK 293 cells luciferase reporter assay. To be noted: IL-17A Prom/LUCPorter HEK 293 cells transfected with RORγt, 16 h. Type of test: cell-based. Here is the method: Antagonistic (or inverse agonistic) effects of the test compounds on the RORγt-activated IL-17A Prom/LUCPorter™ HEK 293 cells were analyzed and IC50 of each compound was evaluated. […] Luciferase activity was analyzed using the luciferase reporter assay reagent (IMGENEX, LS100). The data were analyzed using Excel and Prism software. Percent activity was defined as 100×(1−(Well−Control A)/(Control B−Control A)), where Control A was the wells containing cells transfected with RORγt and Control B was the wells containing non-transfected cells. Both Controls A and B were treated with vehicle alone.
Background: A reporter such as luciferase makes a cellular process visible.

The subject of test [1] is IL-17 release from CD4+ T cells. Nature of the test: Cytokine IL-17 estimation by HTRF, IL-17 release from CD4+ T cells. The note with it: Homo sapiens, IL-17 release from CD4+ T cells, HTRF, read-out: IL-17 Inhibition. Type of test: cell-based. The source says:
The assay was designed to assess the potency of test compounds on IL-17 cytokine release from CD4+ T cells. In order to aid in the identification of potent inhibitors, the IC50's determined for the test compounds IL-17 release from CD4+ T cells through the generation of 10 point Dose Response Curves (DRC). Assay methods used to quantify IL-17 secretion is HTRF (Homogenous Time Resolved Fluorescence). IL-17 secreted is detected by anti-IL-17 MAb labeled with XL665, the second MAb labeled with Cryptate, which binds to specific epitopes of human IL-17. Upon close proximity of both acceptor and donor energy transfer (FRET) occurs. This technique has been further enhanced by using long-lived labels combined with the detection on a time-resolved fluorescence basis, allowing […] of prompt fluorescence interferences.
The assay was performed according to manufacturer's instruction. All the reagents were reconstituted according to instructions provided. The reagents were dispensed into a half area 96-well plate in the following order: […] or sample, IL-17 MAbXL665 and 5 μL IL-17 Cryptate. For the negative control, the standard or sample is replaced by […]. The plate is covered with a plate sealer and incubated at rt for 2 h. Following incubation, the plate sealer is removed and the plate is read using HTRF protocol on Envision Microplate reader. All of the data analysis was carried out using Microsoft Excel (2010) and IC50 was determined using GraphPad Prism 4 software. % Inhibition of the test compounds were determined utilizing the following formula: % Inhibition=100−(100*(Average Test Compound Counts−Average Negative Control Counts)/(Average Positive Control Counts−Average Negative Control Counts)).
We have established robust in vitro cell-based HTRF assay for the activation and stimulation of CD4+ T lymphocytes to T helper 17 (Th17) cell differentiation and IL-17 production.

In a further test the target is T2, RORγ-LBD (RORγt) (Homo sapiens, UniProt P51449).
T2 construct: the 6-His-(GST) RORγ-LBD was used which expressed and purified from baculovirus infected Sf-21 insect cells; made in house; host or cells: baculovirus-infected Sf-21 insect cells
T2 sequence (P51449 269-508 limits assumed): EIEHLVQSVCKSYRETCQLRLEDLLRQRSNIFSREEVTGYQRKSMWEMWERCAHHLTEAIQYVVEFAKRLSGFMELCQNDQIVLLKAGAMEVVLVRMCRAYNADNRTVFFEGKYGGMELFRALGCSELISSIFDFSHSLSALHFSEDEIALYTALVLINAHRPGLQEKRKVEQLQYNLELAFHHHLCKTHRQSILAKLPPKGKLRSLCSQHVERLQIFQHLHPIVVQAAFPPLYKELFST
In words: TR-FRET RORγt Binding Assay. The note with it: 6-His(GST)RORγ-LBD, SRC1_2 peptide. The procedure:
TR-FRET RORγt Binding Assay: RORγ-LBD contains a 6-His and GST tag peptide from SRC1-2 an aminoterminal biotinyl-[…] was employed and the 6-His-(GST) RORγ-LBD was used which expressed and purified from baculovirus infected Sf-21 insect cells from Invitrogen and purified using glutathione sepharose. […] The peptide binding due to dose-curves of compounds was added the 0.1% DMSO. Fluorescence at wavelength 340 nm was read in each well of […] using an Envision fluorescence reader in Time Resolved mode after overnight incubation at 4° C.
(In general: In TR-FRET formats the signal depends on donor and acceptor labels being close together.)

As for `COc1cc2c(cc1NC1CCN(C)CC1)CC(Cc1ccc(SC(F)(F)F)cc1)C2=O` (stereo not drawn) [compound 144], the IC50 (on RORγt (read-out: RORγt Cell Specific); in test [1]; at RORγ-LBD (RORγt) (read-out: RORγt Binding)) was over 1000 nM throughout.

As for `COc1cc2c(cc1N1CCN(CCO)CC1)CC(Cc1ncccc1C(F)(F)F)C2=O` (stereo not drawn) [compound 251], the IC50 (on RORγt (read-out: RORγt Cell Specific); in test [1]; at RORγ-LBD (RORγt) (read-out: RORγt Binding)) was under 500 nM in each case.

Take `COc1cc2c(c(N3CCC(C)CC3)c1OC)CC(Cc1ncccc1C(F)(F)F)C2=O` (stereo not drawn) [compound 133, 5,6-dimethoxy-4-(4-methylpiperidin-1-yl)-2-((3-(trifluoromethyl)pyridin-2-yl)methyl)-2,3-dihydro-1H-inden-1-one]: the IC50 (on RORγt (read-out: RORγt Cell Specific); in test [1]; on RORγ-LBD (RORγt) (read-out: RORγt Binding)) was over 1000 nM in each case.

In the case of `COc1cc2c(cc1N1CCOCC1)CC(Cc1ccc(C(F)(F)F)c(Cl)c1)C2=O` (stereo not drawn) [compound 92], the IC50 (at RORγt (read-out: RORγt Cell Specific); in test [1]; at RORγ-LBD (RORγt) (read-out: RORγt Binding)) was over 1000 nM throughout.

As for `COc1cc2c(cc1N1CCN(C)CC1)CC(Cc1cc(C(F)(F)F)ccc1Cl)C2=O` (stereo not drawn) [compound 161, 2-(2-chloro-5-(trifluoromethyl)benzyl)-6-methoxy-5-(4-methylpiperazin-1-yl)-2,3-dihydro-1H-inden-1-one], the IC50 on RORγt (read-out: RORγt Cell Specific) was under 500 nM; in test [1], over 1000 nM; on RORγ-LBD (RORγt) (read-out: RORγt Binding) it was over 1000 nM.

Regarding `COc1cc2c(cc1N1CCC(F)CC1)CC(Cc1ccc(SC(F)(F)F)cc1)C2=O` (stereo not drawn) [compound 149, 5-(4-fluoropiperidin-1-yl)-6-methoxy-2-(4-((trifluoromethyl)thio)benzyl)-2,3-dihydro-1H-inden-1-one], the IC50 is over 10000 nM on RORγt (read-out: RORγt Cell Specific), over 1000 nM in test [1] and under 500 nM on RORγ-LBD (RORγt) (read-out: RORγt Binding).

In the case of `COc1cc2c(cc1N1CCOCC1)CC(Cc1cc(C(F)(F)F)ccc1NC(=O)C(C)(C)C)C2=O` (stereo not drawn) [compound 65, N-(2-((6-methoxy-5-morpholino-1-oxo-2,3-dihydro-1H-inden-2-yl)methyl)-4-(trifluoromethyl)phenyl)pivalamide], the figures for the IC50 (on RORγt (read-out: RORγt Cell Specific); in test [1]; at RORγ-LBD (RORγt) (read-out: RORγt Binding)) were over 1000 nM, over 1000 nM and over 10000 nM, respectively.

Regarding `COc1cc2c(cc1N1CCOCC1)CC(Cc1ccc(Cl)c(C(F)(F)F)c1)C2=O` (stereo not drawn) [compound 89], the IC50 on RORγt (read-out: RORγt Cell Specific) was over 1000 nM; in test [1], under 500 nM; at RORγ-LBD (RORγt) (read-out: RORγt Binding), over 1000 nM.

As for `COc1cc2c(cc1N1CCOCC1)CC(Cc1cccc(C(F)(F)F)c1)C2=O` (stereo not drawn) [compound 37, 6-methoxy-5-morpholino-2-(3-(trifluoromethyl)benzyl)-2,3-dihydro-1H-inden-1-one], the IC50 (against RORγt (RORγt Cell Specific); in test [1]; at RORγ-LBD (RORγt) (RORγt Binding)) was under 500 nM in each case.

As to `COc1cc2c(c(N3CCN(C)CC3)c1OC)CC(Cc1ccc(SC(F)(F)F)cc1)C2=O` (stereo not drawn) [compound 125, 5,6-dimethoxy-4-(4-methylpiperazin-1-yl)-2-(4-((trifluoromethyl)thio)benzyl)-2,3-dihydro-1H-inden-1-one], the IC50 (at RORγt (read-out: RORγt Cell Specific); in test [1]; at RORγ-LBD (RORγt) (read-out: RORγt Binding)) was over 1000 nM in each case.

On to `COc1cc2c(cc1N1CCOCC1)CC(Cc1cc(C(F)(F)F)ccc1F)C2=O` (stereo not drawn) [compound 77, 2-(2-fluoro-5-(trifluoromethyl)benzyl)-6-methoxy-5-morpholino-2,3-dihydro-1H-inden-1-one], for which the IC50 (at RORγt (read-out: RORγt Cell Specific); in test [1]; at RORγ-LBD (RORγt) (read-out: RORγt Binding)) was over 1000 nM in each case.

`COc1cc2c(cc1N1CCN(C)C(C)C1)CC(Cc1ccc(Cl)cc1F)C2=O` (stereo not drawn) [compound 20, 2-(4-chloro-2-fluorobenzyl)-5-(3,4-dimethylpiperazin-1-yl)-6-methoxy-2,3-dihydro-1H-inden-1-one]: the figures for the IC50 (at RORγt (read-out: RORγt Cell Specific); in test [1]; at RORγ-LBD (RORγt) (read-out: RORγt Binding)) were over 10000 nM, over 1000 nM and over 1000 nM, respectively.

Regarding `COc1cc2c(cc1N1CCOCC1)CC(Cc1ncc(C(O)(C(F)(F)F)C(F)(F)F)cc1C(F)(F)F)C2=O` (stereo not drawn) [compound 268], the IC50 (on RORγt (read-out: RORγt Cell Specific); in test [1]; at RORγ-LBD (RORγt) (read-out: RORγt Binding)) was under 500 nM throughout.

Consider `COc1cc2c(cc1N1CCOCC1)CC(Cc1ccc(Cl)cc1F)C2=O` (stereo not drawn) [compound 16, 2-(4-chloro-2-fluorobenzyl)-6-methoxy-5-morpholino-2,3-dihydro-1H-inden-1-one], for which the IC50 (at RORγt (read-out: RORγt Cell Specific); in test [1]; at RORγ-LBD (RORγt) (read-out: RORγt Binding)) was over 1000 nM in each case.

Take `COc1cc2c(cc1N1CCNCC1)CC(Cc1ncccc1C(F)(F)F)C2=O` (stereo not drawn) [compound 249]: the figures for the IC50 at RORγt (read-out: RORγt Cell Specific) and on RORγ-LBD (RORγt) (read-out: RORγt Binding) were under 500 nM and over 1000 nM, respectively.

As to `COc1cc2c(cc1-c1ccccc1OC(F)(F)F)CC(Cc1ncccc1C(F)(F)F)C2=O` (stereo not drawn) [compound 213], the IC50 at RORγt (read-out: RORγt Cell Specific) is over 1000 nM; in test [1], under 500 nM; on RORγ-LBD (RORγt) (read-out: RORγt Binding), under 500 nM.

Regarding `COc1cc2c(cc1N1CCOCC1)CC(Cc1cc(C)n[nH]1)C2=O` (stereo not drawn) [compound 95], the IC50 (at RORγt (read-out: RORγt Cell Specific); in test [1]; at RORγ-LBD (RORγt) (read-out: RORγt Binding)) was over 1000 nM throughout.

As to `COc1cc2c(cc1N1CCOCC1)CC(Cc1ccc(C(F)(F)F)nc1)C2=O` (stereo not drawn) [compound 83], the IC50 on RORγt (read-out: RORγt Cell Specific) and at RORγ-LBD (RORγt) (read-out: RORγt Binding) was over 1000 nM in each case.

For the compound `COc1cc2c(cc1N1CCOCC1)CC(Cc1c(F)cccc1F)C2=O` (stereo not drawn) [compound 42, 2-(2,6-difluorobenzyl)-6-methoxy-5-morpholino-2,3-dihydro-1H-inden-1-one], the IC50 (in test [1]; at RORγ-LBD (RORγt) (read-out: RORγt Binding)) was over 1000 nM in each case.

Regarding `COc1cc2c(cc1N1CCN(C)CC1)CC(Cc1cccc(C(F)(F)F)c1)C2=O` (stereo not drawn) [compound 156], the IC50 is under 500 nM on RORγt (read-out: RORγt Cell Specific) and over 10000 nM on RORγ-LBD (RORγt) (read-out: RORγt Binding).

For the compound `COc1cc2c(cc1N1CCOCC1)CC(Cc1cncc(C(O)(C(F)(F)F)C(F)(F)F)c1)C2=O` (stereo not drawn) [compound 264], on RORγ-LBD (RORγt) (read-out: RORγt Binding), the IC50 is under 500 nM.

With `COc1cc2c(cc1N1CCOCC1)CC(Cc1c(F)ccc(NC3CCN(C)CC3)c1F)C2=O` (stereo not drawn) [compound 44, 2-(2,6-difluoro-3-((1-methylpiperidin-4-yl)amino)benzyl)-6-methoxy-5-morpholino-2,3-dihydro-1H-inden-1-one], the IC50 in test [1] is over 10000 nM.

For the compound `COc1cc2c(cc1N1CCN(C)C(C)C1)CC(CC1CCN(Cc3ccccc3)CC1)C2=O` (stereo not drawn) [compound 25, 2-((1-benzylpiperidin-4-yl)methyl)-5-(3,4-dimethylpiperazin-1-yl)-6-methoxy-2,3-dihydro-1H-inden-1-one], the IC50 at RORγt (read-out: RORγt Cell Specific) was over 10000 nM.

On to `COc1cc2c(cc1N1CCN(C)CC1)CC(Cc1ncccc1C(F)(F)F)C2=O` (stereo not drawn) [compound 250], for which the IC50 on RORγ-LBD (RORγt) (read-out: RORγt Binding) was over 1000 nM.

(Values after US9446047B2, “Substituted 2,3-dihydro-1H-inden-1-one retinoic acid-related orphan nuclear receptor antagonists for treating multiple sclerosis” (Arrien Pharmaceuticals LLC, priority 2013, dated 2016).)
